From patent US11040052B2, “Methods and pharmaceutical compositions for modulating autophagy in a subject in need thereof” (INSERM (INSTITUT NATIONAL DE LA SANTE ET DE LA RECHERCHE …, priority 2013, dated 2021)
Entries after “also recorded” stand apart in the source; their conditions may differ.

How the values were obtained:
[1] = test system: TAC-induced cardiac autophagy and remodeling; assay: In vivo model of pressure overload (thoracic aortic constriction, TAC); set-up: species or system mice; conditions: daily intra-peritoneal 300 mg/kg
Procedure: Immuno-histochemical staining of heart tissue sections was performed using the Novolink Kit (Menarini Diagnostics, RE7140-K), as previously described (Ladoire et al., 2012). Briefly, […] formalin-fixed, paraffin-embedded tissue sections were deparaffinized with 3 successive passages through xylene, and rehydrated through decreasing concentrations (100%, 95%, 80%, 70% and 50%) of ethanol. Antigen retrieval was performed by heating slides for 30 min in pH 6.0 citrate buffer at 95° C. Slides were then allowed to cool at room temperature for 45 min, mounted on Shandon Sequenza coverplates (Thermo Fisher Scientific, 72-199-50) in distilled water, and then washed twice for 5 min with 0.1% Tween 20 (v/v in PBS). Thereafter, sections were incubated for 5 min with the Peroxidase Block reagent, and subsequently washed twice for 5 min with 0.1% Tween 20 (v/v in PBS). […] Two-dimensional echocardiography was performed prior to surgery and 1 week post-surgery in non-sedated mice to quantify functional parameters using a Vevo 2100 high-resolution imaging system (Visual Sonics). […] Quantitative analysis was obtained through measurement of an average of 900 cells in each section from two (sham) or three (TAC) animals.

[2] = test system: starvation-induced autophagy in mice tissues; assay: Starved mice: tissue AcCoA, protein acetylation and starvation-induced autophagy; format: in vivo
Procedure: C57BL/6 mice (Charles River Laboratory, […], France) were bred and maintained according to both the FELASA and the Animal Experimental Ethics Committee Guidelines (Val de Marne, France). Mice were housed in a temperature-controlled environment with 12 h light/dark cycles and received food and water ad libitum. For HC-related experiments, mice were injected intraperitoneally with a single 100 mg/kg dose and 6 h later were sacrificed and tissues were immediately frozen in liquid nitrogen. […] Tissue extracts were then centrifuged at 12,000 g at 4° C. and supernatants were collected. Protein concentration in the supernatants was evaluated by the bicinchoninic acid technique (BCA protein assay kit, Pierce Biotechnology, Rockford, Ill.). For hydroxycitrate-related weight-loss experiments, autophagy-deficient Atg4b^-/- mice were used. Atg4b^-/- mice have been previously described (Mariño et al., 2010). For HC-, spermidine-, and resveratrol-related experiments (tumour growth) mice were intraperitoneally injected with respectively 100 mg/kg, 50 mg/kg and 100 mg/kg doses at day 8 and day 9. At day 9, mice were intraperitoneally injected with 2 mg/kg single dose of Mitoxanthrone. For starvation related experiment (tumour growth) mice were treated as previously described (Fabrizio et. al., 2010). To avoid post-mortem autophagy induction, dead mice were immediately perfused with 4% paraformaldehyde (w:v in PBS, pH 7.4). Tissues were then harvested and further fixed with the same solution for at least 4 h, followed by treatment with 15% sucrose (w:v in PBS) for 4 h and with 30% sucrose (w:v in PBS) overnight. Tissue samples were embedded in Tissue-Tek OCT compound (Sakura Finetechnical Co. Ltd., Tokyo, Japan) and stored at -70° C. […] In each organ, the number of GFP-LC3 dots was counted in five independent visual fields from at least five mice using a TCS SP2 confocal fluorescence microscope (Leica Microsystems GmbH). […]

AMPK, mTORC1 = assay: Immunoblot of AMPK phosphorylation and mTORC1 activity (p70s6k phosphorylation); format: cell-based, human; conditions: nutrient-depleted (starved) cells in vitro
Procedure: For immunoblotting, 25 μg of proteins were then separated on 4-12% Bis-Tris acrylamide (Invitrogen) or 12% Tris-Glycine SDS-PAGE precast gels (Biorad, Hercules, USA) and electrotransferred to ImmobilonTM membranes (Millipore Corporation, Billerica, USA). Membranes were then sliced in different parts according to the molecular weight of the protein of interest to allow simultaneous detection of different antigens within the same experiment. […] Development was performed with appropriate horseradish peroxidase (HRP)-labeled secondary antibodies (Southern Biotech, Birmingham, USA) plus the SuperSignal West Pico chemoluminescent substrate (Thermo Scientific-Pierce). An anti-glyceraldehyde-3-phosphate dehydrogenase antibody (Chemicon International, Temecula, USA) was used to control equal loading of lanes.

## COC(=O)CCC(=O)C(=O)OC [DMKG, dimethyl-α-ketoglutarate]
[1]
  TAC-induced cardiac autophagy: decreased cardiac autophagy induced by thoracic aortic constriction (TAC); also recorded: inhibited the maladaptive accumulation of autophagosomes
  TAC-induced pathological remodeling / heart failure features: suppressed TAC-induced pathological remodeling; also recorded: suppressed multiple features of TAC-induced heart failure
[2]; intraperitoneal injection, starved mice, vs vehicle
  AcCoA levels in mice tissues after 24 h starvation: increased cardiac AcCoA levels; also recorded: avoided the depletion of AcCoA
[2]; parenteral administration
  cytoplasmic protein acetylation in tissues of starved mice: avoided the depletion of AcCoA, the deacetylation of cytosolic proteins; also recorded: avoided the depletion of AcCoA and the deacetylation of cytoplasmic proteins
[2]; starved mice, LC3 lipidation and GFP-LC3 in heart and muscle
  starvation-induced autophagy in vivo: inhibited starvation-induced autophagy in vivo; also recorded: efficiently reduced autophagy in vivo

## O=C(O)CCCCC1CCSS1 (stereo not shown) [LA, lipoic acid]
AMPK, mTORC1
  AMPK phosphorylation and mTORC1 activity in starved cells: blunted starvation-induced mTORC1 inhibition, AMPK activation

## CC(C)CC(=O)C(=O)O [KIC, ketoisocaproic acid]
AMPK, mTORC1
  AMPK phosphorylation and mTORC1 activity in starved cells: inhibition of AMPK phosphorylation and reversion of mTORC1 dephosphorylation; also recorded: prevented starvation-associated mTORC1 inhibition and AMPK activation
